Test results published in patent US20140140952A1, “D-Alanine Ester of Sp-Nucleoside Analog” (IDENIX PHARMACEUTICALS, INC., priority 2012, published 2014).

Experiments:
[1] = test system: HCV genotype 1b replicon; assay: HCV replicon assay (Zluc luciferase reporter); format: cell-based; conditions: Hepatitis C virus, Zluc cells, 72 hours
Experimental: Huh-7-derived cell line (Zluc) that harbors an HCV genotype 1b replicon and a luciferase reporter gene was grown in Dulbecco's Modified Eagle Medium (DMEM) supplemented with 10% fetal bovine serum, 2 mM GlutaMAX, 1% MEM nonessential amino acids, 100 IU/mL penicillin, 100 μg/mL streptomycin, and 0.5 mg/mL Geneticin® (G418). For dose response testing the cells were seeded in 96-well plates at 7.5×10^3 cells per well in a volume of 50 μL, and incubated at 37° C./5% CO2. Drug solutions were made up freshly in Huh-7 media as 2× stocks. […] were prepared from these stocks in DMEM without G418. At least three hours after Zluc cells were seeded, drug treatment was initiated by adding 50 μL of drug dilutions to the plates in duplicate. Final concentrations of drug ranged from 100 μM to 0.0000512 μM. Cells were then incubated at 37° C./5% CO2. […] For this, media was removed from the plates via gentle tapping. Fifty microliters of ONE-glo luciferase assay reagent was added to each well. The plates were shaken gently for 3 min at room temperature and luminescence was measured on a Victor^3 V 1420 multilabel counter (Perkin Elmer) with a 1 second read time using a 700 nm cut-off filter. The EC50 values were calculated from dose response curves from the resulting best-fit equations determined by Microsoft Excel and XLfit 5.2 software. […]

[2] = Cytotoxicity evaluation, CellTiter-Blue Cell Viability Assay; format: cell-based; conditions: human, Zluc cells (Huh-7-derived cell line), read-out: HCV Replicon CC50
Experimental: For cytotoxicity evaluation, Zluc cells were treated with compound as described herein, and cell viability was monitored using the CellTiter-Blue Cell Viability Assay (Promega) by adding 20 μL of the assay solution to each well. The plates were then incubated at 37° C./5% CO2 for at least 3 hours. Fluorescence was detected in plates using excitation and emission wavelengths of 531 and 595 nm, respectively, in a Victor^3 V 1420 multilabel counter (Perkin Elmer) and CC50 values were determined using Microsoft Excel and XLfit 5.2 software.

[3] = Stability in human liver microsomes; format: in vitro ADME; conditions: human liver microsomes 1.0 mg/mL, 10 μM, NADPH, 60 min
Experimental: (§1) Stability of test compounds was determined in subcellular fractions (microsomes and S9) of human liver and intestine in duplicate for each matrix. Pooled liver and intestinal microsomal, intestinal and liver S9 proteins (1.0 mg/mL), suspended in incubation buffer (100 mM potassium phosphate, pH 7.4, 5 mM MgCl2, and 0.1 mM EDTA), were preincubated for 5 min at 37° C. with 10 μM of a test compound from a 10 mM stock solution in DMSO (final DMSO concentration was 0.1%); the reaction was initiated by the addition of NADPH (3 mM final concentration). At specific times (0 and 60 min), 0.1 mL samples were taken and the reaction terminated by the addition of 4 volumes of stop solution (acetonitrile with 500 ng/mL carbutamide as an internal standard). The samples were vortexed for 30 sec and then centrifuged at 16,000 g for 10 min. Aliquots of supernatants (100 μL each) were transferred to 96 deep-well plates preloaded with 100 μL distilled water and analyzed after mixing by LC-MS/MS. The MS peak area ratio of the test compound versus the internal standard was calculated and percent unchanged test compound over 60 minutes was calculated using this ratio.

[4] = Stability in human intestinal microsomes; format: in vitro ADME; conditions: human intestinal microsomes 1.0 mg/mL, 10 μM, NADPH, 60 min
Experimental: as §1

[5] = Plasma pharmacokinetics following a single oral dose in CD-1 mice; format: in vivo; conditions: CD-1 male mice, single oral dose 10 mg/kg for I or 25 mg/kg for II in PEG 200; plasma 2′-methyl-2′-fluorouridine; 4, 12, 24 hours
Experimental: Plasma samples were analyzed for 2′-methyl-2′-fluorouridine (2′-Me-2′-F-U) by LC-MS/MS. The internal standard (IS) was D3-2′-F-2′-Me-G. For protein precipitation and extraction, each plasma sample (50 μL) was treated with 500 μL of 0.2% formic acid in acetonitrile and 20 μL of the internal standard working solution. After vortexing and centrifugation, 500 μL of the sample extracts were transferred to a new plate, dried under N2 at ˜28° C. and reconstituted with 75 μL of 0.2% FA in water. The extracts were chromatographed on an Aquasil C18 column using a gradient system of 0.2% formic acid in water and acetonitrile. The analytes were detected and quantified by tandem mass spectrometry in positive ion mode on an MDS Sciex API5000 equipped with a Turbo Ionspray® interface. The calibration range was 0.500 (LLOQ) to 200 ng/mL in mouse plasma.

[6] = Liver pharmacokinetics (triphosphate) following a single oral dose in CD-1 mice; format: in vivo; conditions: CD-1 male mice, single oral dose 10 mg/kg for I or 25 mg/kg for II in PEG 200; liver 2′-methyl-2′-fluorouridine triphosphate; 4, 12, 24 hours
Experimental: Liver samples were analyzed for the active species 2′-methyl-2′-fluorouridine triphosphate (2′-Me-2′-F-U TP) by LC-MS/MS. […] Internal standard solution was added to the homogenate followed by neutralization with 20% ammonium hydroxide solution and addition of 500 μL 1% formic acid. The tissue samples were extracted by weak anion exchange solid phase extraction (SPE). Post extraction, the eluates were evaporated under nitrogen, followed by reconstitution before injection onto the LC-MS/MS system. […] The calibration range was 10 to 10000 pmol/mL in mouse liver homogenate (50 to 50000 pmol/g of mouse liver).

| SMILES | EC50 [1] [µM] | CC50 [2] [µM] | Stability (expressed as percent remaining) HLM (1 hr) [3] | Stability (expressed as percent remaining) HIM (1 hr) [4] | Ms Plasma 2′-Me-2′-F-U AUC (pmol · hr/mL at 1 μmol/kg) [5] | Ms Liver 2′-Me-2′-F-U TP AUC (pmol · hr/g at 1 μmol/kg) [6] |
| --- | --- | --- | --- | --- | --- | --- |
| CC(C)OC(=O)[C@@H](C)N[P@@](=O)(OCC1O[C@@H](n2ccc(=O)[nH]c2=O)[C@](C)(F)[C@@H]1O)Oc1ccccc1 (single isomer, unassigned) [Compound (Ia)] | > 10 | > 50 | ++++ (60% < ++++ ≦ 80%) | +++++ (80% < +++++) | +++ (400 < +++ ≦ 1000) | +++++ (1600 < +++++) |
| CC(C)OC(=O)[C@@H](C)N[P@](=O)(OCC1O[C@@H](n2ccc(=O)[nH]c2=O)[C@](C)(F)[C@@H]1O)Oc1ccccc1 (single isomer, unassigned) [Compound (Ib), D-Alanine, N—((SP,2′R)-2′-deoxy-2′-fluoro-2′-methyl-P-phenyl-5′-uridylyl)-, 1-methylethyl ester] | > 10 | > 50 | +++++ (80% < +++++) | +++++ (80% < +++++) | ++ (100 < ++ ≦ 400) | +++ (400 < +++ ≦ 1000) |
